In general, Ki refers to the equilibrium dissociation constant of an inhibitor or competing ligand from its target. Read a low Ki as tighter binding.

The target in the assay is Alpha-1B adrenergic receptor (Mesocricetus auratus) (UniProt P18841). Nature of the assay: Binding affinity to hamster alpha-1B adrenergic receptor.
Alpha-1B adrenergic receptor (Mesocricetus auratus), sequence (P18841 whole entry, looked up): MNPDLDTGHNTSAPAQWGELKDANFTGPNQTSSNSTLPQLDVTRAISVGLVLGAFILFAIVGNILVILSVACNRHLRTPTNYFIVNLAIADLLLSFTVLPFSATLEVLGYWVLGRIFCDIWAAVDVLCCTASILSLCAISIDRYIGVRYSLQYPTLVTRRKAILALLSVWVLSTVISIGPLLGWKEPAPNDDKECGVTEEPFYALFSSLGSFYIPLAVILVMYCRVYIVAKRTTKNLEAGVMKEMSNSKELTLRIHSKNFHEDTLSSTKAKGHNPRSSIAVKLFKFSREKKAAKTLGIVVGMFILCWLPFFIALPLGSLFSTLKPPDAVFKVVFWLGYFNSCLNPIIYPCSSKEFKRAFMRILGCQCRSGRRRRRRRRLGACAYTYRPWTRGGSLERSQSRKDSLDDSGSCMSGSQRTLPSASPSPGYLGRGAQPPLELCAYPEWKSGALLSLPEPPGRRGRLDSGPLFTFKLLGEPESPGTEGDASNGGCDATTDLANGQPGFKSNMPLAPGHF
Turning to `COc1ccc2c(=O)n(CCN3C[C@@H]4CCc5c(OC)cccc5[C@@H]4C3)c(=O)[nH]c2c1` [7-Methoxy-3-[2-(6-methoxy-1,3,3a,4,5,9b-hexahydro-benzo[e]isoindol-2-yl)-ethyl]-1H-quinazoline-2,4-dione], affinity was put at a Ki of 660 pM.

The compound `COc1cccc2c1CC[C@H]1CN(CCn3c(=O)[nH]c4c(OC)cccc4c3=O)C[C@@H]21` [8-Methoxy-3-[2-(6-methoxy-1,3,3a,4,5,9b-hexahydro-benzo[e]isoindol-2-yl)-ethyl]-1H-quinazoline-2,4-dione] gave a Ki of 2270 pM.

In the case of `COc1cccc2c1CC[C@H]1CN(CCn3c(=O)[nH]c4cc(NC(C)=O)ccc4c3=O)C[C@@H]21` [N-{3-[2-(6-Methoxy-1,3,3a,4,5,9b-hexahydro-benzo[e]isoindol-2-yl)-ethyl]-2,4-dioxo-1,2,3,4-tetrahydro-quinazolin-7-yl}-acetamide], the Ki turned out to be 840 pM.
